Activity calls are given as the source filed them. How the calls were made is not given here.
Tested on: rodent lifetime carcinogenesis bioassay, tumor incidence TD50
Test: chronic cancer bioassays in animals – CPDB, compiled studies (AID 1745844)

C=CC=O
carcinogen call (mouse, strain Charles River CD1, females, by gavage, site: liver, lesion: hepatocellular adenoma, dosed 78 weeks, study length 78 weeks): negative (inactive) | carcinogen call (mouse, strain Charles River CD1, females, by gavage, site: lung, lesion: alveolar/bronchiolar adenoma, dosed 78 weeks, study length 78 weeks): negative (inactive) | TD50 (mouse, strain Charles River CD1, females, by gavage, site: lung, lesion: alveolar/bronchiolar carcinoma, dosed 78 weeks, study length 78 weeks): 90.3 mg/kg/day (inactive) | carcinogen call (mouse, strain Charles River CD1, males, by gavage, site: liver, lesion: hepatocellular adenoma, dosed 78 weeks, study length 78 weeks): negative (inactive) | carcinogen call (mouse, strain Charles River CD1, males, by gavage, site: liver, lesion: hepatocellular carcinoma, dosed 78 weeks, study length 78 weeks): negative (inactive) | TD50 (mouse, strain Charles River CD1, males, by gavage, site: lung, lesion: alveolar/bronchiolar adenoma, dosed 78 weeks, study length 78 weeks): 526 mg/kg/day (inactive) | TD50 (mouse, strain Charles River CD1, males, by gavage, site: lung, lesion: alveolar/bronchiolar carcinoma, dosed 78 weeks, study length 78 weeks): 62.6 mg/kg/day (inactive) | TD50 (rat, strain Fischer 344, females, in drinking water, site: adrenal gland, lesion: cortical adenoma, dosed 104 weeks, study length 132 weeks): 93.9 mg/kg/day | TD50 (rat, strain Fischer 344, females, in drinking water, site: liver, lesion: hepatocellular carcinoma, dosed 104 weeks, study length 132 weeks): 433 mg/kg/day | TD50 (rat, strain Fischer 344, females, in drinking water, site: liver, lesion: hyperplastic nodule, dosed 104 weeks, study length 132 weeks): 388 mg/kg/day | TD50 (rat, strain Fischer 344, females, in drinking water, site: liver, lesion: several types, types named in the paper, dosed 104 weeks, study length 132 weeks): 188 mg/kg/day | TD50 (rat, strain Fischer 344, males, in drinking water, site: forestomach, lesion: one or several types, types not named, dosed 117 weeks, study length 132 weeks): 14.4 mg/kg/day | TD50 (rat, strain Fischer 344, males, in drinking water, site: liver, lesion: hepatocellular carcinoma, dosed 117 weeks, study length 132 weeks): 1320 mg/kg/day | TD50 (rat, strain Sprague-Dawley, females, by gavage, site: adrenal gland, lesion: pheochromocytoma, dosed 104 weeks, study length 104 weeks): 5.53 mg/kg/day | TD50 (rat, strain Sprague-Dawley, females, by gavage, site: liver, lesion: hepatocellular adenoma, dosed 104 weeks, study length 104 weeks): 214 mg/kg/day | TD50 (rat, strain Sprague-Dawley, males, by gavage, site: adrenal gland, lesion: cortical adenoma, dosed 104 weeks, study length 104 weeks): 0.471 mg/kg/day | TD50 (rat, strain Sprague-Dawley, males, by gavage, site: adrenal gland, lesion: cortical carcinoma, dosed 104 weeks, study length 104 weeks): 57.7 mg/kg/day | TD50 (rat, strain Sprague-Dawley, males, by gavage, site: liver, lesion: hepatocellular adenoma, dosed 104 weeks, study length 104 weeks): 24.7 mg/kg/day

CNNCc1ccc(C(=O)NC(C)C)cc1
TD50 (monkey, strain Cynomolgus [Macaca fascicularis], both sexes, several routes, site: all sites, lesion: acute nonlymphocytic leukemia, dosed 825 weeks, study length 980 weeks): 14.8 mg/kg/day | TD50 (monkey, strain Cynomolgus [Macaca fascicularis], both sexes, several routes, site: all sites, lesion: lymphocytic lymphoma, dosed 825 weeks, study length 980 weeks): 21.1 mg/kg/day | TD50 (monkey, strain Cynomolgus [Macaca fascicularis], both sexes, several routes, site: any site (literature study), lesion: malignant tumor, dosed 825 weeks, study length 980 weeks): 1.73 mg/kg/day | TD50 (monkey, strain Cynomolgus [Macaca fascicularis], both sexes, several routes, site: bone, lesion: osteosarcoma, dosed 825 weeks, study length 980 weeks): 5.91 mg/kg/day | TD50 (monkey, strain Cynomolgus [Macaca fascicularis], both sexes, several routes, site: brain, lesion: astrocytoma, dosed 825 weeks, study length 980 weeks): 6.19 mg/kg/day | TD50 (monkey, strain Cynomolgus [Macaca fascicularis], both sexes, several routes, site: kidney, lesion: hemangiosarcoma, dosed 825 weeks, study length 980 weeks): 23.5 mg/kg/day | TD50 (monkey, strain Rhesus [Macaca mulatta], both sexes, several routes, site: all sites, lesion: acute nonlymphocytic leukemia, dosed 825 weeks, study length 1182 weeks): 4.21 mg/kg/day | TD50 (monkey, strain Rhesus [Macaca mulatta], both sexes, several routes, site: any site (literature study), lesion: malignant tumor, dosed 825 weeks, study length 1182 weeks): 1.9 mg/kg/day | TD50 (monkey, strain Rhesus [Macaca mulatta], both sexes, several routes, site: cecum, lesion: adenocarcinoma, dosed 825 weeks, study length 1182 weeks): 5.16 mg/kg/day | TD50 (monkey, strain Rhesus [Macaca mulatta], both sexes, several routes, site: humerus, lesion: osteosarcoma, dosed 825 weeks, study length 1182 weeks): 32.7 mg/kg/day | TD50 (monkey, strain Rhesus [Macaca mulatta], both sexes, several routes, site: kidney, lesion: hemangiosarcoma, dosed 825 weeks, study length 1182 weeks): 39.6 mg/kg/day | TD50 (mouse, strain B6C3F1, females, i.p., site: all sites + brain + lung + uterus, lesion: leukemia + lymphoma + olfactory neuroblastoma + alveolar/bronchiolar adenoma + adenocarcinoma, NOS, dosed 52 weeks, study length 85 weeks): 0.194 mg/kg/day | TD50 (mouse, strain B6C3F1, females, i.p., site: all sites, lesion: leukemia + lymphoma, dosed 52 weeks, study length 80 weeks): 0.69 mg/kg/day | TD50 (mouse, strain B6C3F1, females, i.p., site: all sites, lesion: leukemia + lymphoma, dosed 52 weeks, study length 85 weeks): 0.758 mg/kg/day | TD50 (mouse, strain B6C3F1, females, i.p., site: all sites, lesion: lymphoma, dosed 52 weeks, study length 80 weeks): 0.855 mg/kg/day | TD50 (mouse, strain B6C3F1, females, i.p., site: all sites, lesion: lymphoma, dosed 52 weeks, study length 85 weeks): 0.908 mg/kg/day | TD50 (mouse, strain B6C3F1, females, i.p., site: any site (literature study), lesion: several types, types named in the paper, dosed 52 weeks, study length 85 weeks): 0.193 mg/kg/day | TD50 (mouse, strain B6C3F1, females, i.p., site: brain, lesion: olfactory neuroblastoma, dosed 52 weeks, study length 80 weeks): 5.62 mg/kg/day | TD50 (mouse, strain B6C3F1, females, i.p., site: brain, lesion: olfactory neuroblastoma, dosed 52 weeks, study length 85 weeks): 6.34 mg/kg/day | TD50 (mouse, strain B6C3F1, females, i.p., site: lung, lesion: alveolar/bronchiolar adenoma + alveolar/bronchiolar carcinoma, dosed 52 weeks, study length 85 weeks): 3.83 mg/kg/day | TD50 (mouse, strain B6C3F1, females, i.p., site: lung, lesion: alveolar/bronchiolar adenoma, dosed 52 weeks, study length 80 weeks): 3.39 mg/kg/day | TD50 (mouse, strain B6C3F1, females, i.p., site: lung, lesion: alveolar/bronchiolar adenoma, dosed 52 weeks, study length 85 weeks): 3.83 mg/kg/day | TD50 (mouse, strain B6C3F1, females, i.p., site: uterus, lesion: adenocarcinoma, NOS, dosed 52 weeks, study length 80 weeks): 0.411 mg/kg/day | TD50 (mouse, strain B6C3F1, females, i.p., site: uterus, lesion: adenocarcinoma, NOS, dosed 52 weeks, study length 85 weeks): 0.253 mg/kg/day | TD50 (mouse, strain B6C3F1, males, i.p., site: all sites + brain + lung, lesion: leukemia + lymphoma + olfactory neuroblastoma + undifferentiated carcinoma + alveolar/bronchiolar adenoma + alveolar/bronchiolar c, dosed 52 weeks, study length 85 weeks): 0.511 mg/kg/day | TD50 (mouse, strain B6C3F1, males, i.p., site: all sites, lesion: leukemia + lymphoma, dosed 52 weeks, study length 85 weeks): 3.34 mg/kg/day | TD50 (mouse, strain B6C3F1, males, i.p., site: any site (literature study), lesion: several types, types named in the paper, dosed 52 weeks, study length 85 weeks): 0.464 mg/kg/day | TD50 (mouse, strain B6C3F1, males, i.p., site: brain, lesion: olfactory neuroblastoma + undifferentiated carcinoma, dosed 52 weeks, study length 85 weeks): 4.51 mg/kg/day | TD50 (mouse, strain B6C3F1, males, i.p., site: brain, lesion: olfactory neuroblastoma, dosed 52 weeks, study length 85 weeks): 5.19 mg/kg/day | TD50 (mouse, strain B6C3F1, males, i.p., site: liver, lesion: hepatocellular adenoma + hepatocellular carcinoma + neoplastic nodule, dosed 52 weeks, study length 85 weeks): 3.28 mg/kg/day | TD50 (mouse, strain B6C3F1, males, i.p., site: lung, lesion: alveolar/bronchiolar adenoma + alveolar/bronchiolar carcinoma, dosed 52 weeks, study length 85 weeks): 0.623 mg/kg/day | TD50 (mouse, strain B6C3F1, males, i.p., site: lung, lesion: alveolar/bronchiolar adenoma, dosed 52 weeks, study length 85 weeks): 0.721 mg/kg/day | TD50 (mouse, strain Swiss, females, i.p., site: all sites, lesion: leukemia, dosed 26 weeks, study length 76 weeks): 3.72 mg/kg/day | TD50 (mouse, strain Swiss, females, i.p., site: all sites, lesion: lymphosarcoma, dosed 26 weeks, study length 76 weeks): 6.99 mg/kg/day | TD50 (mouse, strain Swiss, females, i.p., site: any site (literature study), lesion: benign tumor, dosed 26 weeks, study length 76 weeks): 27.8 mg/kg/day | TD50 (mouse, strain Swiss, females, i.p., site: any site (literature study), lesion: malignant tumor, dosed 26 weeks, study length 76 weeks): 0.391 mg/kg/day | TD50 (mouse, strain Swiss, females, i.p., site: any site (literature study), lesion: several types, types named in the paper, dosed 26 weeks, study length 76 weeks): 0.244 mg/kg/day | TD50 (mouse, strain Swiss, females, i.p., site: lung, lesion: several types, types named in the paper, dosed 26 weeks, study length 76 weeks): 1.05 mg/kg/day | TD50 (mouse, strain Swiss, females, i.p., site: uterus, lesion: carcinoma, dosed 26 weeks, study length 76 weeks): 5.75 mg/kg/day | TD50 (mouse, strain Swiss, females, i.p., site: uterus, lesion: sarcoma, dosed 26 weeks, study length 76 weeks): 6.11 mg/kg/day | TD50 (mouse, strain Swiss, males, i.p., site: any site (literature study), lesion: benign tumor, dosed 26 weeks, study length 78 weeks): 9.84 mg/kg/day | TD50 (mouse, strain Swiss, males, i.p., site: any site (literature study), lesion: malignant tumor, dosed 26 weeks, study length 78 weeks): 1.74 mg/kg/day | TD50 (mouse, strain Swiss, males, i.p., site: any site (literature study), lesion: several types, types named in the paper, dosed 26 weeks, study length 78 weeks): 1.15 mg/kg/day | TD50 (mouse, strain Swiss, males, i.p., site: lung, lesion: several types, types named in the paper, dosed 26 weeks, study length 78 weeks): 1.53 mg/kg/day | TD50 (rat, strain BR 46, males, i.v., site: any site (literature study), lesion: malignant tumor, dosed 52 weeks, study length 104 weeks): 3.93 mg/kg/day | TD50 (rat, strain BR 46, males, i.v., site: any site (literature study), lesion: several types, types named in the paper, dosed 52 weeks, study length 104 weeks): 4.01 mg/kg/day | TD50 (rat, strain Sprague-Dawley, females, i.p., site: all sites + brain + cerebrum + mammary gland, lesion: lymphoma + olfactory neuroblastoma + mucinous adenocarcinoma + adenocarcinoma, NOS + adenoma, NOS, dosed 26 weeks, study length 86 weeks): 0.337 mg/kg/day | TD50 (rat, strain Sprague-Dawley, females, i.p., site: all sites, lesion: lymphoma, dosed 26 weeks, study length 80 weeks): 4.48 mg/kg/day | TD50 (rat, strain Sprague-Dawley, females, i.p., site: all sites, lesion: lymphoma, dosed 26 weeks, study length 86 weeks): 5.18 mg/kg/day | TD50 (rat, strain Sprague-Dawley, females, i.p., site: any site (literature study), lesion: several types, types named in the paper, dosed 26 weeks, study length 86 weeks): 0.329 mg/kg/day | TD50 (rat, strain Sprague-Dawley, females, i.p., site: brain + cerebrum, lesion: olfactory neuroblastoma + mucinous adenocarcinoma, dosed 26 weeks, study length 80 weeks): 0.36 mg/kg/day | TD50 (rat, strain Sprague-Dawley, females, i.p., site: brain + cerebrum, lesion: olfactory neuroblastoma + mucinous adenocarcinoma, dosed 26 weeks, study length 86 weeks): 0.416 mg/kg/day | TD50 (rat, strain Sprague-Dawley, females, i.p., site: brain, lesion: olfactory neuroblastoma, dosed 26 weeks, study length 80 weeks): 0.361 mg/kg/day | TD50 (rat, strain Sprague-Dawley, females, i.p., site: brain, lesion: olfactory neuroblastoma, dosed 26 weeks, study length 86 weeks): 0.418 mg/kg/day | TD50 (rat, strain Sprague-Dawley, females, i.p., site: mammary gland, lesion: adenocarcinoma, NOS + adenoma, NOS, dosed 26 weeks, study length 80 weeks): 0.396 mg/kg/day | TD50 (rat, strain Sprague-Dawley, females, i.p., site: mammary gland, lesion: adenocarcinoma, NOS + adenoma, NOS, dosed 26 weeks, study length 86 weeks): 0.458 mg/kg/day | TD50 (rat, strain Sprague-Dawley, females, i.p., site: mammary gland, lesion: adenocarcinoma, NOS, dosed 26 weeks, study length 80 weeks): 0.397 mg/kg/day | TD50 (rat, strain Sprague-Dawley, females, i.p., site: mammary gland, lesion: adenocarcinoma, NOS, dosed 26 weeks, study length 86 weeks): 0.459 mg/kg/day | TD50 (rat, strain Sprague-Dawley, males, i.p., site: all sites + brain + mammary gland + olfactory bulb, lesion: leukemia + lymphoma + carcinoma, NOS + olfactory neuroblastoma + adenocarcinoma, NOS + adenoma, NOS, dosed 26 weeks, study length 61 weeks): 0.284 mg/kg/day | TD50 (rat, strain Sprague-Dawley, males, i.p., site: all sites, lesion: leukemia + lymphoma, dosed 26 weeks, study length 61 weeks): 2.1 mg/kg/day | TD50 (rat, strain Sprague-Dawley, males, i.p., site: all sites, lesion: leukemia, dosed 26 weeks, study length 61 weeks): 13.3 mg/kg/day | TD50 (rat, strain Sprague-Dawley, males, i.p., site: all sites, lesion: lymphoma, dosed 26 weeks, study length 61 weeks): 2.51 mg/kg/day | TD50 (rat, strain Sprague-Dawley, males, i.p., site: any site (literature study), lesion: several types, types named in the paper, dosed 26 weeks, study length 61 weeks): 0.186 mg/kg/day | TD50 (rat, strain Sprague-Dawley, males, i.p., site: brain + olfactory bulb, lesion: carcinoma, NOS + olfactory neuroblastoma + adenocarcinoma, NOS, dosed 26 weeks, study length 61 weeks): 0.343 mg/kg/day | TD50 (rat, strain Sprague-Dawley, males, i.p., site: mammary gland, lesion: adenocarcinoma, NOS + adenoma, NOS, dosed 26 weeks, study length 61 weeks): 4.5 mg/kg/day | TD50 (rat, strain Sprague-Dawley, males, i.p., site: mammary gland, lesion: adenocarcinoma, NOS, dosed 26 weeks, study length 61 weeks): 4.85 mg/kg/day | TD50 (rat, strain Sprague-Dawley, males, i.p., site: olfactory bulb, lesion: adenocarcinoma, NOS, dosed 26 weeks, study length 61 weeks): 4.67 mg/kg/day
